The values below come from patent US11839613B2, “Pyrimidine derivatives as PGE2 receptor modulators” (IDORSIA PHARMACEUTICALS LTD, priority 2017, dated 2023).

One test has as its target PTGER4 (EP4) (Homo sapiens (Human), UniProt P35408).
In a further test the target is EP2 (Homo sapiens (Human), UniProt P43116). Nature of the test: hEP2 cAMP assay (SF295 glioblastoma cells, HTRF cAMP). It is filed as cell-based. The settings on record: antagonistic activity. The procedure, abridged:
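PGE2-driven cAMP accumulation was measured by HTRF in SF295 cells, which express endogenous EP2 only. Cells in assay buffer with 2 mM IBMX were pre-incubated 45 min at RT, then incubated 30 min at RT. Detection used competition between cellular cAMP and d2-cAMP for a cryptate anti-cAMP antibody.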
A general note: cAMP levels reflect the balance of adenylyl cyclase and phosphodiesterase activity.

A further test addresses PTGER2 (EP2) (Homo sapiens (Human), UniProt P43116). The test can be described thus: hEP2 b-arrestin assay (PathHunter HEK 293 PTGER2 b-arrestin cells). The settings on record: antagonistic activity, beta-arrestin assay; read-out: hEP2 b-arr IC50. The class given is cell-based. The procedure:
Plate is pre-incubated 15 minutes at 37° C. Then five microliters of PGE2 (final conc. 5 μM) are transferred into the assay plate. Plate is incubated 120 minutes at 37° C.
(each concentration is measured in duplicate)

The target in a further test is EP4 (Homo sapiens (Human), UniProt P35408). The test can be described thus: hEP4 cAMP assay (BT549 breast cancer cells, HTRF cAMP). The class given is cell-based. The settings on record: antagonistic activity, PGE2 6 nM. Put shortly: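 BT549 breast cancer cells (endogenous EP4) in HBSS/20 mM HEPES/0.2% BSA/2 mM IBMX preincubated 45 min at RT with compound, then stimulated 30 min at RT with 6 nM PGE2 (final). cAMP read by competitive HTRF immunoassay, signal inversely proportional to cAMP.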
EP4, sequence (P35408 whole entry): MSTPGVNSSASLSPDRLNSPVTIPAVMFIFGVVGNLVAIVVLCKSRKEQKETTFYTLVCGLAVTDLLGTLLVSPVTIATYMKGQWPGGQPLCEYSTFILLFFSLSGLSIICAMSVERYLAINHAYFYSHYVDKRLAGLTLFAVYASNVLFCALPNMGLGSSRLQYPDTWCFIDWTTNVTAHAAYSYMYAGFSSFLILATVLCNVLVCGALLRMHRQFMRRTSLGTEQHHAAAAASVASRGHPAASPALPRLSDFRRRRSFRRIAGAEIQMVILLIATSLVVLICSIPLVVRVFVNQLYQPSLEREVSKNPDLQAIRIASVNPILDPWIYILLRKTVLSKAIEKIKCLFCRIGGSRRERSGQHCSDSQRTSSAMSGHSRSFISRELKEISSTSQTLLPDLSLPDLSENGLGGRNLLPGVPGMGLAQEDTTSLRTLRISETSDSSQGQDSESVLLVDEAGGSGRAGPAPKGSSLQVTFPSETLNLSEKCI

EP2, sequence (P43116 whole entry): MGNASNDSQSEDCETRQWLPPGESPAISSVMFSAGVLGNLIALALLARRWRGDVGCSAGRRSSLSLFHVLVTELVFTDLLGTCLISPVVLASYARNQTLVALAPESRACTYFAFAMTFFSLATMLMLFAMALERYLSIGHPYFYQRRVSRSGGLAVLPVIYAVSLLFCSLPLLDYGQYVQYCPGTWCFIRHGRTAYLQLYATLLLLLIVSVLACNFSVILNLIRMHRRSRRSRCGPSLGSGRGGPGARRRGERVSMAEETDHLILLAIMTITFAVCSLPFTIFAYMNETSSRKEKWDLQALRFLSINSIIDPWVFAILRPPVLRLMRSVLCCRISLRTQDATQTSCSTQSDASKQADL
PTGER2 (EP2), sequence (P43116 whole entry): as above
PTGER4 (EP4), sequence (P35408 whole entry): as the sequence (P35408 whole entry) above

Regarding `C#Cc1c(CCNc2cc(-c3cc(OCC)c(C(=O)O)s3)ncn2)ccc2ccccc12` [Ex 17], the IC50 (usually the concentration that gives 50% inhibition) on PTGER4 (EP4) is 8 nM; at EP2 it was 171 nM; on PTGER2 (EP2) it was 108 nM; at EP4, 9 nM.
On to `CCOc1cc(-c2cc(NCCc3ccc4cccc(F)c4c3)ncn2)ccc1C(=O)O` [Ex 269], for which the IC50 against PTGER4 (EP4) was 588 nM; at EP2 it was 6510 nM; at PTGER2 (EP2), 1640 nM; against EP4, 434 nM.
For the molecule `CCOc1cc(-c2cc(NCCc3cc4ccsc4cc3OC)ncn2)ccc1OCC(=O)O` [Ex 80], the half-inhibitory concentration (IC50) at PTGER4 (EP4) was 32 nM; on EP2 it was 37 nM; at PTGER2 (EP2) it was 17 nM; against EP4 it was 45 nM.
Turning to `CSc1cc(-c2cc(NCCc3c(F)cc4ccccc4c3F)ncn2)ccc1CC(=O)O` [Ex 270], the IC50 at PTGER4 (EP4) is 404 nM; on EP2, 5660 nM; at PTGER2 (EP2), 1520 nM; against EP4 it was 435 nM.
As to `COc1cc2ccccc2c(F)c1CCNc1cc(-c2ccc(CC(=O)O)c(SC)c2)ncn1` [Ex 115], the IC50 against PTGER4 (EP4) came out at 53 nM; against EP2, 682 nM; on PTGER2 (EP2), 243 nM; against EP4, 85 nM.
As to `CCOc1cc(-c2cc(NCCc3c(F)cc4ncccc4c3F)ncn2)sc1C(=O)O` [Ex 43], the IC50 on PTGER4 (EP4) is 44 nM; against EP2, 43 nM; at PTGER2 (EP2) it was 54 nM; on EP4 it was 21 nM.
Take `CCOc1cc(-c2cc(NCCc3c(F)cc4ccccc4c3F)ncn2)sc1C(=O)O` [Ex 335]: the IC50 is 12 nM against PTGER4 (EP4), 268 nM at EP2, 100 nM at PTGER2 (EP2) and 3 nM against EP4.
In the case of “2-Ethoxy-4-{6-[2-(7-ethynyl-2,3-dihydro-benzo[1,4]dioxin-6-yl)-ethylamino]-pyrimidin-4-yl}-benzoic acid [Example 439]”, the IC50 at PTGER4 (EP4) stood at 197 nM; against EP2, 33 nM; on PTGER2 (EP2), 17 nM; against EP4 (BT549 cells), 139 nM.
Regarding `CSc1cc(-c2cc(NCCc3ccc4scnc4c3)ncn2)ccc1C(=O)O` [Ex 237], the IC50 turned out to be 908 nM on PTGER4 (EP4), 160 nM against EP2, 388 nM on PTGER2 (EP2) and 335 nM on EP4.
In the same order, the values of `CCOc1cc2ccccc2cc1CCNc1cc(-c2ccc(OCC(=O)O)c(OCC)c2)ncn1` [Ex 160] are 24 nM, 93 nM, 35 nM and 158 nM.
For `COc1cc2ccccc2c(C)c1CCNc1cc(-c2ccc(CC(=O)O)c(SC)c2)ncn1` [Ex 163], in that order: 98 nM, 246 nM, 85 nM and 158 nM.
Turning to `CCOc1cc2sccc2cc1CCNc1cc(-c2ccc(C(=O)O)c(OCC)c2)ncn1` [Ex 126], the IC50 against PTGER4 (EP4) was found to be 66 nM; on EP2 it was 6 nM; on PTGER2 (EP2) it was 8 nM; against EP4, 101 nM.
In the same order, the values of `CCOc1cc(-c2cc(NCCc3c(C#N)cc4ccccc4c3F)ncn2)ccc1C(=O)O` [Ex 73] are 91 nM, 1770 nM, 809 nM and 39 nM.
For `CCOc1cc(-c2cc(NCCc3ccc4ncoc4c3)ncn2)sc1C(=O)O` [Ex 146], in that order: 361 nM, 115 nM, 258 nM and 137 nM.
For `CCOc1cc(-c2cc(NCCc3cc(F)c4c(c3)OCCO4)ncn2)sc1C(=O)O` [Ex 35], in that order: 23 nM, 194 nM, 359 nM and 18 nM.
Turning to `CCOc1cc2sccc2cc1CCNc1cc(-c2ccc(OCC(=O)O)c(OCC)c2)ncn1` [Ex 53], the IC50 worked out at 12 nM against PTGER4 (EP4), 12 nM against EP2, 5 nM on PTGER2 (EP2) and 25 nM at EP4.
Turning to `CSc1cc(-c2cc(NCCc3c(C#N)cc4ccccc4c3C)ncn2)ccc1C(=O)O` [Ex 52], the IC50 against PTGER4 (EP4) was 63 nM; against EP2, 158 nM; at PTGER2 (EP2) it was 318 nM; at EP4 it was 25 nM.
For `O=C(O)c1ccc(-c2cc(NCCc3ccc4c(c3)CCS4)ncn2)cc1OC1CCC1` [Ex 170], in that order: 124 nM, 94 nM, 241 nM and 168 nM.
As for `COc1cc2c(cc1CCNc1cc(-c3ccc(C(=O)O)c(CC(C)C)c3)ncn1)OCCO2` [Example 416], the IC50 turned out to be 82 nM at PTGER4 (EP4), 123 nM on EP2, 245 nM at PTGER2 (EP2) and 83 nM at EP4 (BT549 cells).
For `CSc1cc(-c2cc(NCCc3ccc4scc(C#N)c4c3)ncn2)ccc1C(=O)O` [Ex 212], the IC50 on PTGER4 (EP4) stood at 340 nM; against EP2, 50 nM; at PTGER2 (EP2), 255 nM; against EP4, 253 nM.
In the same order, the values of `COc1cc2ccccc2c(F)c1CCNc1cc(-c2ccc(C(=O)O)c(OC3CCC3)c2)ncn1` [Ex 25] are 16 nM, 98 nM, 96 nM and 22 nM.
In the same order, the values of `CCOc1cc2ccccc2cc1CCNc1cc(-c2cc(OCC)c(C(=O)O)s2)ncn1` [Ex 23] are 3 nM, 19 nM, 15 nM and 14 nM.
In the same order, the values of `CCOc1cc(-c2cc(NCCc3ccc4cccc(F)c4c3)ncn2)ccc1CC(=O)O` [Ex 314] are 378 nM, 9230 nM, 3460 nM and 701 nM.
Take `CCOc1cc(-c2cc(NCCc3cc4ccsc4cc3OC)ncn2)ccc1CC(=O)O` [Ex 118]: the IC50 against PTGER4 (EP4) was 74 nM; against EP2, 66 nM; at PTGER2 (EP2), 34 nM; against EP4, 88 nM.
For `CCOc1cc(-c2cc(NCCc3cc4ccccc4cc3OC(F)F)ncn2)sc1C(=O)O` [Ex 45], in that order: 5 nM, 185 nM, 127 nM and 21 nM.
In the same order, the values of `CCOc1cc(-c2cc(NCCc3c(OC)cc4ccccc4c3C)ncn2)ccc1CC(=O)O` [Ex 61] are 28 nM, 214 nM, 148 nM and 46 nM.
As for `CCOc1cc(-c2cc(NCCc3cc4ccsc4cc3OC)ncn2)ccc1C(=O)O` [Ex 109], the IC50 was 101 nM on PTGER4 (EP4), 12 nM against EP2, 34 nM on PTGER2 (EP2) and 78 nM against EP4.
In the same order, the values of `COc1cc2sccc2cc1CCNc1cc(-c2ccc(C(=O)O)c(OC3CCC3)c2)ncn1` [Ex 63] are 50 nM, 12 nM, 16 nM and 33 nM.
Take `CCOc1cc(-c2cc(NCCc3cc4c(cc3OC)OCCO4)ncn2)ccc1OCC(=O)O` [Ex 120]: the IC50 on PTGER4 (EP4) amounted to 61 nM; against EP2, 111 nM; at PTGER2 (EP2) it was 114 nM; on EP4, 92 nM.
As to `CCOc1cc(-c2cc(NCCc3ccc4c(c3)CCS4)ncn2)sc1C(=O)O` [Ex 15], the concentration for half-maximal inhibition (IC50) on PTGER4 (EP4) worked out at 12 nM; against EP2 it was 28 nM; on PTGER2 (EP2), 177 nM; at EP4, 8 nM.
